The text below walks through data of patent US8093273B2, “Flavanoids and isoflavanoids for the prevention and treatment of cardiovascular diseases” (Resverlogix Corp., priority 2004, dated 2012).

The subject of one data set is human ApoA-I promoter. The experiment in a line: ApoA-I promoter induction in Caco-2 intestinal cells (pAI.474-Luc luciferase reporter). The format is cell-based. The conditions noted are these: Caco-2 cells, 15 μM, 48 hours incubation, luciferase activity vs control samples. On the procedure: To examine the effects of compounds of the invention to increase ApoA-I expression, Caco-2 cells, an intestinal cell line derived from human epithelial intestinal cells, were grown under conditions recommended by the ATCC and summarized in United States Patent Application Publication No. 20040033480 (“Wong”), incorporated herein by reference.
Briefly, the promoter region of the gene encoding human ApoA-I was isolated and ligated upstream of the firefly luciferase gene to construct the reporter plasmid pAI.474-Luc. This reporter plasmid and pRSV-β-galactosidase (as a control for transfection efficiency) were co-transfected to Caco-2 cells. The Caco-2 cells were then incubated in a MEM selection media containing 20% fetal calf serum supplemented with G418 (final concentration: 0.5 mg/mL, Gibco) to give established strains that stably express from the reporter gene. The strains were seeded in 6-well culture plates and incubated for 48 hours at 37° C. under 5% carbon dioxide. Cells were starved for 24 hrs in MEM selection media containing 0.5% FBS. Then, a solution of a compound of the invention in DMSO or other appropriate solvent was added to the wells at a final concentration of 0 to 100 μM in MEM selection media containing 0.5% FBS.
After further incubation for 48 hours, the cells were harvested and lysed using Reporter Lysis Buffer (PROMEGA E3971), and 50 μL of luciferase assay reagent (PROMEGA E4550 Luciferase Reporter 1000 assay system) was added to measure luciferase activity with a luminometer (Fluoroskan Ascent FL from Thermo electron Corporation). Luciferase activity was normalized to lysate protein concentrations, measured using Bradford Reagent (BioRad Protein Assay reagent Cat #500-0006). The luciferase activity of cells treated with various concentrations of test compounds was compared to that of solvent control sample (i.e., solvent without any compound of the present invention added) and untreated control sample.

Molecules are shown by their SMILES. Structures can show the parent of a compound that is named as a salt.

Usually melting point stands for the temperature of the solid-liquid transition. Take `Cl.Nc1cccc2c(=O)cc(-c3ccc(O)c(F)c3)oc12`: the melting point lay within 256.4 to 258.5 °C.

Compound `O=c1cc(-c2ccc(C[n+]3ccccc3)cc2)oc2ccc(O)cc12.[Cl-]` came in with a melting point of 243 to 247 °C.

In the case of `O=c1cc(-c2cccc(O)c2)oc2ccccc12` [2-(3-Hydroxyphenyl)-4H-chromen-4-one, 2-(3-hydroxyphenyl)-4H-chromen-4-one, reference compound], the “ApoA-I Promoter Induction” value with human ApoA-I promoter is recorded as “increased”.

On to `O=c1cc(-c2ccc(O)cc2)oc2ccccc12` [2-(4-Hydroxyphenyl)-chromen-4-one, 2-(4-Hydroxy-phenyl)-chromen-4-one, reference compound], for which the “ApoA-I Promoter Induction” value in the data set with human ApoA-I promoter was “increased”.

As for `COc1cc(-c2cc(=O)c3ccccc3o2)ccc1O` [2-(4-hydroxy-3-methoxyphenyl)-4H-chromen-4-one, reference compound], in the data set with human ApoA-I promoter, the “ApoA-I Promoter Induction” value is listed as “increased”.

In the case of `O=c1cc(-c2ccccc2)oc2ccccc12` [2-Phenyl-4H-chromen-4-one, 2-phenyl-4H-chromen-4-one, reference compound], the “ApoA-I Promoter Induction” value in the data set with human ApoA-I promoter is listed as “increased”.

As to `O=c1c(-c2ccc(O)cc2)coc2cc(O)cc(O)c12` [5,7-dihydroxy-3-(4-hydroxyphenyl)-4H-chromen-4-one, reference compound], the “ApoA-I Promoter Induction” value in the data set with human ApoA-I promoter was “increased”.

With `O=c1cc(-c2ccc(O)cc2)oc2cccc(O)c12` [5-Hydroxy-2-(4-hydroxy-phenyl)-chromen-4-one, reference compound], the “ApoA-I Promoter Induction” value with human ApoA-I promoter is reported as “increased”.

Take `O=c1cc(-c2ccccc2)oc2cccc(O)c12` [5-Hydroxy-2-phenyl-4H-chromen-4-one, 5-Hydroxy-2-phenyl-chromen-4-one, reference compound]: the “ApoA-I Promoter Induction” value with human ApoA-I promoter is “increased”.

Take `O=c1cc(-c2ccc(O)cc2)oc2ccc(O)cc12` [6-hydroxy-2-(4-hydroxyphenyl)-4H-chromen-4-one, reference compound]: in the data set with human ApoA-I promoter, the “ApoA-I Promoter Induction” value is “increased”.

For `O=c1cc(-c2ccc(O)cc2)oc2cc(O)ccc12` [7-Hydroxy-2-(4-hydroxy-phenyl)-chromen-4-one, reference compound], in the data set on human ApoA-I promoter, the “ApoA-I Promoter Induction” value was “increased”.

For `O=c1cc(-c2ccccc2)oc2cc(O)ccc12` [7-Hydroxy-2-phenyl-4H-chromen-4-one, 7-hydroxy-2-phenyl-4H-chromen-4-one, reference compound], in the data set on human ApoA-I promoter, the “ApoA-I Promoter Induction” value is on record as “increased”.

For the compound `COc1ccc(-c2cc(=O)c3c(F)cc(F)cc3o2)cc1` [Example 1, 5,7-Difluoro-2-(4-methoxy-phenyl)-chromen-4-one], the “ApoA-I Promoter Induction” value in the data set on human ApoA-I promoter is recorded as “no increase”.

In the case of `O=c1cc(-c2ccc(O)cc2)oc2cc(F)cc(F)c12` [Example 2, 5,7-Difluoro-2-(4-hydroxyphenyl)-4H-chromen-4-one], the “ApoA-I Promoter Induction” value in the data set on human ApoA-I promoter was “increased”.

Take `COc1ccc(-c2cc(=O)c3ccccc3o2)cc1` [Example 4, 2-(4-Methoxy-phenyl)-4H-chromen-4-one]: the “ApoA-I Promoter Induction” value with human ApoA-I promoter is “increased”.

In the case of `O=c1cc(-c2ccc(O)cc2)oc2c(O)cccc12` [Example 5, 8-Hydroxy-2-(4-hydroxy-phenyl)-4H-chromen-4-one], the “ApoA-I Promoter Induction” value with human ApoA-I promoter is recorded as “increased”.

`CC(=O)Nc1cc(O)ccc1-c1cc(=O)c2ccccc2o1` [Example 8, N-[5-Hydroxy-2-(4-oxo-4H-chromen-2-yl)-phenyl]acetamide] gave a melting point of 253 to 255 °C.

In turn, `O=c1cc(-c2ccc(O)cc2[N+](=O)[O-])oc2ccccc12` [Example 10, 2-(4-Hydroxy-2-nitrophenyl)chromen-4-one] showed a melting point of 277 to 279 °C.

As to `O=c1cc(-c2ccc(O)cc2F)oc2ccccc12` [Example 15, 2-(2-Fluoro-4-hydroxyphenyl)chromen-4-one], the melting point is 287 to 289 °C.

As for `O=c1cc(-c2ccc(O)cc2)oc2c([N+](=O)[O-])cccc12` [Example 16, 2-(4-Hydroxyphenyl)-8-nitro-4H-chromen-4-one], the melting point lay in the range of 299 to 301 °C.

In turn, `COc1cccc2c(=O)cc(-c3ccc(O)cc3)oc12` [Example 17, 2-(4-Hydroxyphenyl)-8-methoxy-4H-chromen-4-one] returned a melting point of 281 to 283 °C. In addition, in the data set with human ApoA-I promoter, the “ApoA-I Promoter Induction” value is on record as “increased”.

With `COc1cc(OC)c2c(=O)cc(-c3ccc(O)cc3)oc2c1` [Example 18, 2-(4-Hydroxyphenyl)-5,7-dimethoxy-4H-chromen-4-one], the melting point is 301 to 303 °C. The “ApoA-I Promoter Induction” value with human ApoA-I promoter was “increased”.

`O=c1cc(-c2ccc(O)c(Br)c2)oc2ccccc12` [Example 19, 2-(3-Bromo-4-hydroxyphenyl)-4H-chromen-4-one] returned a melting point of 273.5 to 274.9 °C. In addition, in the data set with human ApoA-I promoter, the “ApoA-I Promoter Induction” value is “increased”.

Consider `CN(C)Cc1c(-c2ccc(O)cc2)oc2ccccc2c1=O.Cl` [Example 20, 3-((Dimethylamino)methyl)-2-(4-hydroxyphenyl)-4H-chromen-4-one hydrochloride], for which the melting point lay within 271.5 to 272.3 °C. The “ApoA-I Promoter Induction” value in the data set on human ApoA-I promoter is “no increase”.

Consider `N#CCc1c(-c2ccc(O)cc2)oc2ccccc2c1=O` [Example 21, 2-(2-(4-Hydroxyphenyl)-4-oxo-4H-chromen-3-yl)acetonitrile], for which the melting point lay within 258.2 to 259.5 °C. Besides, the “ApoA-I Promoter Induction” value in the data set on human ApoA-I promoter is listed as “increased”.

Compound `O=c1c(CO)c(-c2ccc(O)cc2)oc2ccccc12` [Example 22, 3-(Hydroxymethyl)-2-(4-hydroxyphenyl)-4H-chromen-4-one] yielded a melting point of 234 to 235 °C.

The compound `N#Cc1ccc2oc(-c3ccc(O)cc3)cc(=O)c2c1` [Example 23, 2-(4-Hydroxyphenyl)-4-oxo-4H-chromene-6-carbonitrile] had a melting point of 296 to 298 °C.

In the case of `CC(=O)Oc1ccc(-c2cc(=O)c3cc(Br)cc([N+](=O)[O-])c3o2)cc1F` [Example 25, 4-(6-Bromo-8-nitro-4-oxo-4H-chromen-2-yl)-2-fluorophenyl acetate], the melting point fell in the range of 236.2 to 238.5 °C. In addition, the “ApoA-I Promoter Induction” value with human ApoA-I promoter was “increased”.

Consider `COCc1c(-c2ccc(O)cc2)oc2ccccc2c1=O` [Example 26, 2-(4-Hydroxyphenyl)-3-(methoxymethyl)-4H-chromen-4-one], for which the melting point was in the range of 237 to 239 °C. Moreover, the “ApoA-I Promoter Induction” value with human ApoA-I promoter is “increased”.

As for `CN(C)Cc1ccc2oc(-c3ccc(O)cc3)cc(=O)c2c1` [Example 28, 6-((Dimethylamino)methyl)-2-(4-hydroxyphenyl)-4H-chromen-4-one], the melting point fell in the range of 99 to 102 °C.

In the case of `O=c1cc(-c2ccc(O)cc2)oc2c[n+]([O-])ccc12` [Example 30, 2-(4-Hydroxyphenyl)-4-oxo-4H-pyrano[2,3-c]pyridine 7-oxide], the melting point lay in the range of 307 to 308 °C. Moreover, in the data set with human ApoA-I promoter, the “ApoA-I Promoter Induction” value is on record as “no increase”.

With `O=c1cc(-c2ccc(O)cc2)oc2c1ccc[n+]2[O-]` [Example 31, 2-(4-Hydroxyphenyl)-4-oxo-4H-pyrano[2,3-b]pyridine 8-oxide], the melting point fell in the range of 314 to 315 °C. The “ApoA-I Promoter Induction” value with human ApoA-I promoter is listed as “no increase”.

Regarding `O=c1cc(-c2ccc(O)cc2)oc2cc[n+]([O-])cc12` [Example 32, 2-(4-Hydroxyphenyl)-4-oxo-4H-pyrano[3,2-c]pyridine 6-oxide], the “ApoA-I Promoter Induction” value with human ApoA-I promoter is recorded as “no increase”.

`N#Cc1ccc(-c2cc(=O)c3cccnc3o2)cc1` [Example 40, 4-(4-Oxo-4H-pyrano[2,3-b]pyridine-2-yl)benzonitrile] returned a melting point of 250 to 252 °C. Besides, the “ApoA-I Promoter Induction” value with human ApoA-I promoter is recorded as “increased”.

As for `O=c1cc(-c2ccc(O)cc2)[nH]c2cc(O)cc(O)c12` [Example 50, 5,7-Dihydroxy-2-(4-hydroxyphenyl)-quinolin-4(H)-one], the “ApoA-I Promoter Induction” value in the data set on human ApoA-I promoter is “increased”.

On to `CNc1nc(-c2ccc(O)c(F)c2)cc2c(OC)cccc12` [Example 58, 2-Fluoro-4-(5-methoxy-1-(methylamino)isoquinolin-3-yl)phenol], for which the melting point fell in the range of 185 to 187 °C.

As to `Oc1ccc(-c2ccc3ccccc3c2)cc1` [Example 65, 4-Naphthalen-2-yl-phenol], the “ApoA-I Promoter Induction” value in the data set on human ApoA-I promoter is recorded as “increased”.

`O=C1C=C(c2ccc(O)cc2)S(=O)(=O)c2ccccc21` [Example 66, 2-(4-Hydroxy-phenyl)-1,1-dioxo-1H-1λ^6-thiochromen-4-one]: the melting point was in the range of 222 to 224 °C.

Turning to `Oc1ccc(-c2ccc3ccccc3c2)nc1` [Example 68, 6-Naphthalen-2-yl-pyridin-3-ol], the melting point fell in the range of 168 to 169 °C.

With `N=C(N)NCCCC(N)C(=O)Oc1ccc(-c2cc(=O)c3ccccc3o2)cc1` (centres unmarked) [Example 76, 2-Amino-5-guanidino-pentanoic acid 4-(4-oxo-4H-chromen-2-yl)phenyl ester trihydrochloride], the “ApoA-I Promoter Induction” value in the data set with human ApoA-I promoter was “increased”.
